Experimental data as given in patent US5126057A, “Disinfecting with N,N'-dihaloimidazolidin-4-ones” (Auburn Research Foundation, priority 1991, dated 1992).

What was measured:
[1] = Stability in demand-free water exposed to direct sunlight; assay type: physicochemical; settings: pH 7; for remaining at 3 h / remaining at 5 h / remaining at 10 h: demand-free water, direct sunlight
Description: The stabilities of compounds 1,5, and free chlorine from calcium hypochlorite (Compound 2) in water exposed to direct sunlight were determined. Each compound at the 10 milligrams per liter total chlorine concentration level (or at the molar equivalent for total halogen for Compound 5) was dissolved in 85 milliliters of demand-free water buffered at pH 7.0 in separate 100 milliliter beakers which were placed in a temperature-controlled water bath (22°-24° C.), and the bath containing the solutions was placed on the roof of the chemistry building at Auburn University exposed to direct sunlight during August 1988. Total potential positive halogen assays were made periodically on aliquots withdrawn over a 10 hour period using the standard iodometric titration technique.

[2] = Prevention of the growth of algae in water by Compound 1; assay type: cell-based; settings: algal aquarium, pH 6.8, start 6.14 mg per liter, read-out: Percent Total Potential Positive Chlorine Remaining
Description: (§1) Two 10 gallon aquariums were each filled with 35 liters of Bristol's solution at pH 6.8 as described in example 16. To aquarium A was added 6.14 milligrams per liter total potential positive chlorine from 0.638 grams of 1,3-dichloro-2,2,5,5-tetramethylimidazolidin-4-one (Compound 1) as prepared in example 1. Aquarium B was used as a control with no halogenated compound added. Then 5 milliliters of an inoculum containing the algae Oscillatoria lutea, Anabaena cylindrica, and Chlorella pyrenoidosa with an absorbance of 0.14 at 750 nanometers was added to each aquarium. Constant aeration and illumination as described in example 16 were provided throughout the experiment. The laboratory temperature varied between 21° and 24° C. during the course of the experiment. Both aquariums were sampled periodically such that the absorption at 750 nanometers could be measured with a Milton Roy Spectronic 301 spectrophotometer. Aquarium A was also sampled for total potential positive chlorine using standard iodometric titration.

[3] = system: Oscillatoria lutea, Anabaena cylindrica, and Chlorella pyrenoidosa; test: as above; assay type: cell-based
Description: as §1

CC1(C)C(=O)N(Cl)C(C)(C)N1Cl [Compound 1, 1,3-dichloro-2,2,5,5-tetramethylimidazolidin-4-one]
remaining at 3 h [1]: 84.9%
remaining at 5 h [1]: 74.8%
remaining at 10 h [1]: 51.2%
stability (in words) [1]: much more stable than free chlorine
remaining at 24 h ([2]; day 1): 70.1%
remaining at 96 h ([2]; day 4): 53.4%
remaining at 120 h ([2]; day 5): 52.1%
remaining at 144 h ([2]; day 6): 51%
remaining at 168 h ([2]; day 7): 49.5%
remaining at 192 h ([2]; day 8): 48.9%
remaining at 264 h ([2]; day 11): 45.8%
remaining at 288 h ([2]; day 12): 45.6%
remaining at 312 h ([2]; day 13): 44.8%
remaining at 336 h ([2]; day 14): 43.3%
remaining at 360 h ([2]; day 15): 44.8%
remaining at 432 h ([2]; day 18): 41.9%
green turbid tint (in words) ([3]; 6.14 mg per liter Cl+, 18 day experiment): did not develop such a color at any time during the 18 day experiment
A750 (Absorbance at 750 Nanometers) ([3]; 6.14 mg per liter Cl+, day 7): 0.002
A750 (Absorbance at 750 Nanometers) ([3]; 6.14 mg per liter Cl+, day 11): 0.0
A750 (Absorbance at 750 Nanometers) ([3]; 6.14 mg per liter Cl+, day 12): 0.001
A750 (Absorbance at 750 Nanometers) ([3]; 6.14 mg per liter Cl+, day 13): 0.0
A750 (Absorbance at 750 Nanometers) ([3]; 6.14 mg per liter Cl+, day 14): 0.001
A750 (Absorbance at 750 Nanometers) ([3]; 6.14 mg per liter Cl+, day 15): 0.0
A750 (Absorbance at 750 Nanometers) ([3]; 6.14 mg per liter Cl+, day 18): 0.0
prevention of the growth of algae (in words) ([3]; as long as a measurable amount of the compound is present): effective at preventing the growth of algae in water
Percent Total Potential Positive Chlorine Remaining ([3]; start 6.14 mg per liter, day 0): 100.0%

CC1(C)C(=O)N(Cl)C(C)(C)N1Br [Compound 5, 1-bromo-3-chloro-2,2,5,5-tetramethylimidazolidin-4-one]
remaining at 3 h [1]: 60.5%
remaining at 5 h [1]: 45.7%
remaining at 10 h [1]: 14.9%
stability (in words) [1]: less stable than Compound 1, but significantly more stable than free chlorine
